According to patent publication US20240025899A1, “TRIHETEROCYCLIC DERIVATIVE, AND PHARMACEUTICAL COMPOSITION AND APPLICATION THEREOF” (SHANGHAI DE NOVO PHARMATECH CO., LTD., priority 2020, published 2024):
Structures can show the parent of a compound that is named as a salt.

What was measured:
[1] = molecular target: ATR/ATRIP kinase (Homo sapiens (Human), UniProt Q13535); test: ATR enzyme assay (HTRF, phosphorylation of substrate protein P53); assay type: biochemical; conditions: substrate P53, TR-FRET
ATR/ATRIP kinase, sequence (Q13535 whole entry): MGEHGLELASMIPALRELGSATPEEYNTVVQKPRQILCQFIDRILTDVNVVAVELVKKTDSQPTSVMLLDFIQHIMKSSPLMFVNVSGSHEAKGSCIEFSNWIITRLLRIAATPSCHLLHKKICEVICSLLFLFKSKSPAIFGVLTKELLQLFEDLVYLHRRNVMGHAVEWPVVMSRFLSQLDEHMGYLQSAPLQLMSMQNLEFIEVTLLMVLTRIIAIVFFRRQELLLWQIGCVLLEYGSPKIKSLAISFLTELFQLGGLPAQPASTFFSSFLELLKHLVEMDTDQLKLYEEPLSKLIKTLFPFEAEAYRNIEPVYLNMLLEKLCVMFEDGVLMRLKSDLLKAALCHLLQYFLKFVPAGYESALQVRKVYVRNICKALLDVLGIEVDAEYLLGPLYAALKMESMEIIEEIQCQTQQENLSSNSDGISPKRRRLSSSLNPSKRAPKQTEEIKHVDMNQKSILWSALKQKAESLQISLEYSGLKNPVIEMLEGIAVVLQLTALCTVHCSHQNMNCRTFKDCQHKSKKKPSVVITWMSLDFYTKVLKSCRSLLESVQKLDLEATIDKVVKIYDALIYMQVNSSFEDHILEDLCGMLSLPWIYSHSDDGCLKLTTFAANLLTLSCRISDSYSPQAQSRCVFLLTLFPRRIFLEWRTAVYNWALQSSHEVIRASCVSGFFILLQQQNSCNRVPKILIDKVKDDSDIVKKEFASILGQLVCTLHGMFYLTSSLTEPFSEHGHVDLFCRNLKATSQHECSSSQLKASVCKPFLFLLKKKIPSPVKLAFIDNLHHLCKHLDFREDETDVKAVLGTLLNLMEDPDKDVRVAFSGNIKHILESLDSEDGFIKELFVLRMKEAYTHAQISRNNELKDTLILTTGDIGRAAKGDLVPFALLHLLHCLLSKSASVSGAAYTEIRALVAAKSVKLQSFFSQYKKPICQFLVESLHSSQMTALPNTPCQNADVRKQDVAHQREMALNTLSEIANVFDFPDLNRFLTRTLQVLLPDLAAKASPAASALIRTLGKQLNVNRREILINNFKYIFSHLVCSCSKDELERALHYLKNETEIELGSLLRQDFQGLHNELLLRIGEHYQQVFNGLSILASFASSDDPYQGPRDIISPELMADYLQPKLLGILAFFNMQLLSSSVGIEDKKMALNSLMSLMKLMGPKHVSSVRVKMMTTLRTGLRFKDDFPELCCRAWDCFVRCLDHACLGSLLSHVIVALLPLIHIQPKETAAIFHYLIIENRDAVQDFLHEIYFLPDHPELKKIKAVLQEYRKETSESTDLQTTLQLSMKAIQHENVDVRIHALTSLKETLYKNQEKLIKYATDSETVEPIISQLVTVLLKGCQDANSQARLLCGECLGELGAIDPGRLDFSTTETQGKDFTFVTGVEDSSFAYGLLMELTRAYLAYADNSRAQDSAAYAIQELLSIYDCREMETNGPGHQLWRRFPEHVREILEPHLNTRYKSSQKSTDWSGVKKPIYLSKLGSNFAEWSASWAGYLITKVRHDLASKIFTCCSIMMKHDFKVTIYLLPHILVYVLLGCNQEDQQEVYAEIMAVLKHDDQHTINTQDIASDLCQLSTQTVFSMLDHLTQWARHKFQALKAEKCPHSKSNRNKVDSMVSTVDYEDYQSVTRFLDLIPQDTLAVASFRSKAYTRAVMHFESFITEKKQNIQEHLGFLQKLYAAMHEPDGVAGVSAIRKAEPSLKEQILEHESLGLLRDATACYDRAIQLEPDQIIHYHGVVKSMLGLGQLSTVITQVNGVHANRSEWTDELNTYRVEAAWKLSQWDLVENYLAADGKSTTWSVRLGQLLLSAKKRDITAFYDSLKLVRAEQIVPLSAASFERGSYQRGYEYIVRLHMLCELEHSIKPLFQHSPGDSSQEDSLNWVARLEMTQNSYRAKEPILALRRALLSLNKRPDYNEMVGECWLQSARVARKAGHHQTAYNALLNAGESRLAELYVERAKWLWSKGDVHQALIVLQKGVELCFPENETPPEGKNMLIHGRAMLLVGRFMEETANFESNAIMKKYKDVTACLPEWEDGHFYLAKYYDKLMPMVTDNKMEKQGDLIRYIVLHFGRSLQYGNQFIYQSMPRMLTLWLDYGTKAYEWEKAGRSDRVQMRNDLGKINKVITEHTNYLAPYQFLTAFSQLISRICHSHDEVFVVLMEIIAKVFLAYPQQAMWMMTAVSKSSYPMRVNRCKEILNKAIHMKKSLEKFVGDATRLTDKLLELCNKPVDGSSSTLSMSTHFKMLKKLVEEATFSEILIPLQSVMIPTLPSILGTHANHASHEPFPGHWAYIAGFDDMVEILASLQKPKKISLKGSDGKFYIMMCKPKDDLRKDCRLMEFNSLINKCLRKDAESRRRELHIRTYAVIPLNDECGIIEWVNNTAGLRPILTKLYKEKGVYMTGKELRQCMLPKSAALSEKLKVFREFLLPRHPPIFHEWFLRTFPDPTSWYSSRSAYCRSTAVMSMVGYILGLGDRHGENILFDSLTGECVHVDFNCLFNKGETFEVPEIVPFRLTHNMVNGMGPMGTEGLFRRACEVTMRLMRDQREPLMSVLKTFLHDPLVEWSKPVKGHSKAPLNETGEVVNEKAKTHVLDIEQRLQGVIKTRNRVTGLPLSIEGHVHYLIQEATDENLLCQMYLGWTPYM
ATR/ATRIP kinase, sequence (Q8WXE1 whole entry partner): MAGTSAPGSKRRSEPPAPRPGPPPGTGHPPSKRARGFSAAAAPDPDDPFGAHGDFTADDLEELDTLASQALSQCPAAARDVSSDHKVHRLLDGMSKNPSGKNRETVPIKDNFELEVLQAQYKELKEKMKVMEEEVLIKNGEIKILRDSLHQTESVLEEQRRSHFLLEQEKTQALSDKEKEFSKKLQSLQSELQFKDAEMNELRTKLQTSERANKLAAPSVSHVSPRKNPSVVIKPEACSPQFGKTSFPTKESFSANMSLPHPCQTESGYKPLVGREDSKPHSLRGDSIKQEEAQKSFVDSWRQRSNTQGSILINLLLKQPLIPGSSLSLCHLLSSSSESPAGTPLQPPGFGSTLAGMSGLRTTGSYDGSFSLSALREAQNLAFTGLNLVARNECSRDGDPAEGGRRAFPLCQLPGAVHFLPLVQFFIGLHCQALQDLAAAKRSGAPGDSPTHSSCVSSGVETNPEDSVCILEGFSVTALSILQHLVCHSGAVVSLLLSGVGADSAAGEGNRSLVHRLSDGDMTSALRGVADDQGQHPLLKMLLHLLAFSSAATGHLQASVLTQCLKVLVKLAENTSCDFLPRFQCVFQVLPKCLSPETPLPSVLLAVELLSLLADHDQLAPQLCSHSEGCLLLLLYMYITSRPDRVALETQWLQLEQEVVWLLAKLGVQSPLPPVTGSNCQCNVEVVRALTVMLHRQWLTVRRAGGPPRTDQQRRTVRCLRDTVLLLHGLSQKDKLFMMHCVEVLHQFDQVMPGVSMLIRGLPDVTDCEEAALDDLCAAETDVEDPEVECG
Experimental: In this experiment, the phosphorylation level of substrate protein P53 (Eurofins, 14-952) was detected by HTRF technology to measure the activity of ATR/ATRIP (Eurofins, 14-953) kinase. Reaction buffer (25 mM HEPES pH 8.0, 0.01% Brij-35, 1% Glycerol, 5 mM DTT, 1 mg/mL BSA), termination buffer (12.5 mM HEPES pH 8.0, 0.005% Brij-35, 0.5% Glycerol, 250 mM EDTA) and assay buffer (50 mM HEPES pH 7.0, 150 mM NaCl, 267 mM KF, 0.1% sodium cholate, 0.01% Tween 20) were prepared in advance. ATR/ATRIP was diluted with reaction buffer to a working solution of 2 ng/μL, and the substrate protein P53 was diluted with reaction buffer to a working solution of 80 nM, and 4 nM of ATP (Sigma, A2383) working solution (containing 40 mM MnCl2) was prepared with reaction buffer. The compound was 3-fold diluted with DMSO, then diluted with reaction buffer into a working solution, then added to a 384-well plate at 2.5 μL/well, and centrifuged at 1500 rpm for 40 s. Then 2.5 μL of ATR/ATRIP working solution, P53 working solution and ATP working solution were added into the 384-well plate, centrifuged at 1500 rpm for 40 s and reacted at room temperature for 30 minutes. After the reaction was completed, 5 μL of termination buffer was added to each well, and centrifuged at 1500 rpm for 40 s. Antibody working solution containing 0.083 μg/mL anti-phospho-p53 (Ser15)-K (CisBio, cat. 61P08KAE) and 5 μg/mL anti-GST-d2 (CisBio, cat. 61GSTDLA) was prepared with assay buffer and added to the 384-well plate at 5 μL/well, then centrifuged at 1500 rpm for 40 s and reacted overnight at room temperature. Microplate reader (Tecan, Infinite M1000 Pro) was used to detect TR-FRET, and the data were analyzed with Graphpad software, and the four-parameter equation was used to fit the curve and calculate the IC50 value of the inhibitor (Table 1).

[2] = tested on: LOVO human colon cancer cell line; test: Cell proliferation assay (Cell titer glo); assay type: cell-based; conditions: LOVO cells, 72 hours
Experimental: In the present disclosure, cell assays were used to evaluate the biological activity of compounds. LOVO (Nanjing Cobioer), a human colon cancer cell line, was cultured in a Dulbecco's Modified Eagle's medium 96-well plate, supplemented with 10% fetal bovine serum and 1% P/S, and the culture environment was 37° C. and 5% CO2. Compound concentrations were ranged from 4.5 nM to 30 μM. The stock solution of the test compound was dissolved in DMSO and added to the medium at the indicated concentration, and incubated for 72 hours. Negative control cells were treated with vehicle only. In some experiments, known ATR inhibitors were added as positive controls. Cell viability was evaluated using the Cell titer glo kit (CTG, Promega) under the instructions of the product specification. The data were analyzed using Graphpad software, and IC50 values and compound fitting curves were obtained (Table 2).

[3] = tested on: OCI-LY19 human B-cell lymphoma; test: In vivo drug efficacy, OCI-LY19 human B-cell lymphoma mouse subcutaneous xenograft tumor model; conditions: Group 2, 20 mg/kg p.o. once a day
Experimental: Cell culture: Human B-cell lymphoma OCI-LY19 cells were maintained as a monolayer in MEM-α medium containing 10% fetal bovine serum in a constant temperature incubator at 37° C. with 5% CO2. Tumor cells were subcultured twice a week. Cells in exponential growth phase were harvested and counted for inoculation.
Experimental animals: BALB/c nude mice, 6-8 weeks old, 19-22 g, purchased from Beijing Vital River Laboratory Animal Technology Co., Ltd.
For Vehicle, positive control (AZD6738, CAS number: 1352226-88-0) and compound 2, a total of 6 experimental groups were set up, as shown in Table 5 below:
Experimental method: The OCI-LY19 cell line (3.0×10^6 cells/mouse) was inoculated subcutaneously on the right back of the experimental mouse, and the inoculation volume of each mouse was 0.1 mL, and the growth of tumors was observed regularly, and until the tumor grew to about 100 mm^3, the mice were randomly divided into groups according to the tumor size and body weight, and administered according to the administration plan shown in Table 5, and the mouse body weight and tumor size were measured twice a week during the whole experiment.
tumor volume (mm^3)=0.5×(tumor long diameter×tumor short diameter^2). Tumor size calculation formula: […]

Row | Structure (SMILES) | IC50 [1] [nM] | IC50 [2] [nM] | other results
1 | C[C@@H]1COCCN1c1nc2c(c(C#N)nn2-c2cc[nH]n2)c2c1CCN2S(C)(=O)=O [Compound 7, (R)-4-(3-methylmorpholinyl)-1-(methylsulfonyl)-6-(1H-pyrazol-3-yl)-1,2,3,6-tetrahydropyrazolo[3,4-b]pyrrolo[2,3-d]pyridine-8-carbonitrile] | 46 | 406 | –
2 | C[C@@H]1COCCN1c1nc2c(cnn2-c2cc[nH]n2)c2c1CCN2C [Compound 12, (R)-3-methyl-4-(1-methyl-6-(1H-pyrazol-3-yl)-tetrahydropyrazolo[3,4-b]pyrrolo[2,3-d]pyridin-4-yl)morpholine] | – | 93.7 | –
3 | C[C@@H]1COCCN1c1cc(C2([S@](C)(=N)=O)CC2)nc(-c2cc[nH]c3nccc2-3)n1 [AZD6738, reference compound] | – | – | T/C (%) [3]: 31.2%; TGI (%) [3]: 72.1%; Tumor volume (10 days, mm^3) ([3]; 10 days): 108.23 ± 4.67 mm^3; Tumor volume (24 days, mm^3) ([3]; 24 days): 738.65 ± 257.29 mm^3
4 | C[C@@H]1COCCN1c1nc2c(cnn2-c2cc[nH]n2)c2c1CCN2S(N)(=O)=O [Compound 5, (R)-4-(3-methylmorpholine)-6-(1H-pyrazol-3-yl)-2,3-dihydropyrazolo[3,4-b]pyrrolo[2,3-d]pyridine-1(6H)-sulfonamide] | – | 262 | –
5 | C[C@@H]1COCCN1c1nc2c(-c3cc[nH]n3)nccc2c2c1ccn2S(C)(=O)=O [Compound 8, (R)-3-methyl-4-(1-(methylsulfonyl)-6-(1H-pyrazol-3-yl)-1H-pyrrolo[3,2-c][1,7]naphthyridin-4-yl)morpholine] | 40 | 32.3 | –
6 | C[C@@H]1COCCN1c1nc2c(cnn2-c2cc[nH]n2)c2c1CCN2C1CC1 [Compound 11, (R)-4-(1-cyclopropyl-6-(1H-pyrazol-3-yl)-1,2,3,6-tetrahydropyrazolo[3,4-b]pyrrolo[2,3-d]pyridin-4-yl)-3-methylmorpholine] | 5.9 | 72 | –
7 | C[C@@H]1COCCN1c1nc2c(cnn2-c2cc[nH]n2)c2c1CCN2S(=O)(=O)N(C)C [Compound 4, (R)—N,N-dimethyl-4-(3-methylmorpholino)-6-(1H-pyrazol-3-yl)-2,3-dihydropyrazolo[3,4-b]pyrrolo[2,3-d]pyridine-1(6H)-sulfonamide trifluoroacetate] | 1.8 | – | –
8 | C[C@@H]1COCCN1c1nc2c(cnn2-c2cc[nH]n2)c2c1CCN2S(=O)(=O)C(F)(F)F [Compound 6, (R)-4-(6-(1H-pyrazol-3-yl)-1-((trifluoromethyl)sulfonyl)-1,2,3,6-tetrahydropyrazolo[3,4-b]pyrrolo[2,3-d]pyridin-4-yl)-3-methylmorpholine trifluoroacetate] | 4.8 | 79.6 | –
9 | C[C@@H]1COCCN1c1nc2c(cnn2-c2cc[nH]n2)c2c1CCN2c1cccnc1 [Compound 13, (R)-4-(6-(1H-pyrazol-3-yl)-1-(pyridin-3-yl)-1,2,3,6-tetrahydropyrazolo[3,4-b]pyrrolo[2,3-d]pyridin-4-yl)-3-methylmorpholine trifluoroacetate] | 7.5 | – | –
